Patent US20260069694A1, “IDENTIFICATION OF HIGHLY IMMUNOSUPRESIVE TREG POPULATION IN TUMOR MICROENVIRONMENTS” (THE TRUSTEES OF COLUMBIA UNIVERSITY IN THE CITY OF NEW YORK, priority 2023, published 2026)

Tests used:
[1] = system: naïve CD4+ T cells / CD4+CD25+Foxp3+ iTregs; test: iTreg induction from naive CD4+ T cells in the absence or presence of iRGD or iRGE; format: cell-based, mouse
Protocol: (§1) Naïve CD4^+ T cells and nTregs were isolated from the spleen of healthy C57B6129SF1/J mice by magnetic separation using a mouse CD4+ T cell isolation kit and PE-conjugated anti-mouse CD25 with anti-PE magnetic separation micro beads (Miltenyi Biotec™). The isolated T cells were stimulated with anti-CD3/CD28 beads (×25 dilution; Miltenyi Biotec™) in the presence or absence of recombinant mouse TGF-β1 (5 ng/ml; Bio-Techne™ Corporation) for 3 days. iRGD (100 μM) or iRGE (100 μM) peptide was added to the cultures in some experiments. To study the effect of TGF-β1 on the induction of αvβ5 integrin+ iTregs, naïve CD4+ T cells were cultured with anti-CD3/CD28 beads (x 25 dilution) and TGF-β1 (5 ng/ml) in the presence or absence of varying concentrations of a TGF-βR1 inhibitor (LY2157299; Selleck™ Chemicals LLC). To study the effect of TCR stimulation on the induction of αvβ5 integrin+ iTregs, naïve CD4+ T cells treated with varying concentrations of plate-coated anti-mouse CD3 Ab (eBioscience™) in the presence of soluble anti-mouse CD28 Ab (2 μg/ml) (eBioscience™) and TGF-β1 (5 ng/ml). The cells were subjected to flow cytometry as described elsewhere.
For the data presented in FIG. 31, FIG. 32A, and FIG. 32B, naïve CD4+ T cells were stimulated with anti-CD3/CD28 Abs and TGF-β1 in the absence or presence of iRGD or iRGE. Flow cytometry was performed to quantify the proportion of CD4+CD25+Foxp3+ iTregs (see FIG. 31) and αvβ5 integrin+ cells among the iTregs (See FIG. 32A). Apoptosis of αvβ5 integrin+ iTregs was quantitated by measuring cleaved caspase 3 using flow cytometry (see FIG. 32B; n=3).
To investigate whether iRGD Reduces CD4+CD25+Foxp3+ iTregs in an RGD-Dependent Manner in Vitro, naïve CD4+ T cells were stimulated with anti-CD3/CD28 Abs and TGF-β1 in the absence or presence of the iRGD or iRGE peptide. The resulting cells were subjected to flow cytometry to analyze the expression of CD25 and Foxp3 in the CD4+ T cells (FIG. 33A) and the expression of the αvβ5 integrin and NRP-1 on CD4+CD25+Foxp3+ iTregs (FIG. 33B). The bar diagram in (FIG. 33C) summarizes the proportion of NRP-1+ cells among the iTregs. The statistical analysis used was the one-way ANOVA; p=0.8221. n=3 per group.
The proportion of apoptotic αvβ5 integrin+ iTregs (FIG. 34) and CD4+Foxp3neg T cells (FIG. 35) was quantitated by measuring cleaved caspase 3 using flow cytometry. The statistical analysis used was Welch's t test; p=0.0705 (n=3). The dot plots and histograms of FIG. 33C and FIG. 35 show representative data from the 3 independent experiments. The error bars indicate the mean±standard error; N.S., not significant.

[2] = system: naïve CD4+ T cells; test: iTreg induction from naive CD4+ T cells with TGF-βR1 inhibitor; format: cell-based, mouse
Protocol: as §1
Naive CD4+ T cells isolated from healthy mice were expanded in the presence of anti-CD3/CD28 Abs, exogenous TGF-β1, and increasing doses of a TGF-βR1 inhibitor (LY2157299). […] The bar diagram of FIG. 25B summarizes the results from 3 independent experiments. The statistical analysis used was one-way ANOVA; p<0.0001 (0 vs 1), p<0.0001 (1 vs 3), p=0.0154 (3 vs 10).
The bar diagram of FIG. 26B summarizes the results from 3 independent experiments. The statistical analysis used was one-way ANOVA; p=0.3996 (αvβ5, 0 vs 1), p=0.5868 (αvβ5, 0 vs 3), p=0.2265 (NRP-1, 0 vs 1), p=0.5751 (NRP-1, 0 vs 3). The error bars indicate the mean±standard error; *p<0.05; ****p<0.0001; N.S., not significant.

[3] = peptide 100 μM, anti-CD3/CD28 Abs and TGF-β1

| Compound | apoptosis of CD4+Foxp3neg T cells (cleaved caspase 3) ([1]; flow cytometry) | proportion of CD4+CD25+Foxp3+ iTregs [1, 3] | αvβ5 integrin-positive population among the iTregs [1, 3] | proportion of the NRP-1-positive iTregs ([2]; among iTregs) | proportion of the αvβ5-positive iTregs ([2]; among iTregs) | development of iTregs (CD4+Foxp3+ T cells) from naïve CD4+ T cells ([2]; anti-CD3/CD28 Abs, exogenous TGF-β1, increasing doses of inhibitor) |
| --- | --- | --- | --- | --- | --- | --- |
| CRGEKGPDC [iRGE, an iRGD variant that lacks the RGD motif, reference compound] | Neither iRGD nor iRGE increased the apoptosis | ineffective | ineffective |  |  |  |
| Cc1cccc(-c2nn3c(c2-c2ccnc4ccc(C(N)=O)cc24)CCC3)n1 [LY2157299] |  |  |  | did not affect | did not affect | suppressed the development of iTregs from naïve CD4+ T cells in a dose-dependent manner |
